Reference: publication PMC2823781, “The X-Ray Crystal Structure of Escherichia coli Succinic Semialdehyde Dehydrogenase; Structural Insights into NADP^+/Enzyme Interactions” (PLoS ONE, 2010)

Experiments:
[1] = target: T1, E. coli SSADH (gabD gene product) (Escherichia coli, UniProt P25526); assay: fluorometric NADPH formation (ex […] nm, em […] nm); assay type: biochemical; details: 1.1 mM NADP+, 100 mM Na phosphate pH 8.0, 30 °C; varied substrate SSA (range printed as 0–400 mM), substrate not named beside Km
T1 construct: expressed in E. coli BL21(DE3) pLysS; homotetramer, 481 residues per monomer in crystal; single amino acid change versus database gabD, not specified

[2] = target: Escherichia coli succinic semialdehyde dehydrogenase (gabD gene product, NADP+-dependent) (E. coli) (UniProt P25526); assay: SEC; analytical size-exclusion chromatography of purified recombinant SSADH; data not shown

Km [1] [µM]	stoichiometry N [2]	Molecule
16.9 ± 2.2		O=CCCC(=O)O [SSA, succinic semialdehyde]
	4	Escherichia coli succinic semialdehyde dehydrogenase (gabD gene product, NADP+-dependent) (from UniProt P25526 1-482) (enzyme)
